{"source": "paper PMC4979516", "about": "“Quinazoline-based tricyclic compounds that regulate programmed cell death, induce neuronal differentiation, and are curative in animal models for excitotoxicity and hereditary brain disease” (Cell Death Discovery, 2015)", "key": {"U118MG cells [1]": {"system": "U118MG cells", "experiment": "LDH cytotoxicity assay, glutamate-induced cell death of U118MG cells", "details": "35 mM glutamate", "procedure": "(1) For U118MG cells, glutamate at a concentration of 35 mM was applied with or without MGV-1. As discussed, glutamate levels in normal healthy brain tissue can average 15 mM, and these levels can be doubled in diseased brain tissue, whereas in cell organelles glutamate levels can be as high as 250 mM (as discussed). […] In more detail, U118MG cells were seeded, 2×10^5 cells per well of 6-well plates and 6×10^3 cells per well of 96-well plates. Twenty-four hours after seeding, U118MG cells were pretreated with MGV-1 (or one of the other compounds) at various concentrations from 0.1 nM–100 μM. Twenty-four hours after the pretreatment, the cells were exposed to 35 mM of glutamate. […] The negative control was vehicle, that is, ethanol with a final concentration of 1%. […] The positive control was exposure to 35 mM of glutamate alone (with 200 μM of glycine).\nWells of 96-well plates were with 6000 cells per well and treated according the protocol presented above. We used the Cytotoxicity Detection Kit (LDH) (Roche Pharmacuticals) according to the manufacturer’s instructions. When cell plasma membranes are damaged, the cytoplasmic enzyme LDH is released into the medium. The amount of formazan formed is proportional to the amount of LDH released.[77] The resulting color intensity is proportional to the number of damaged cells. Absorbance at 492 nm with reference at 690 nm was measured with the Spectrophotometer Zenyth 200 (Anthos) and the results were calculated and normalized according to the formula presented by the manufacturer."}, "U118MG cells [2]": {"system": "U118MG cells", "experiment": "Mitochondrial membrane potential (JC-1) assay in U118MG cells exposed to glutamate", "assay_type": "cell-based, human", "details": "25 μM compound, 35 mM glutamate", "from_the_text": "JC-1 was used to assay changes in Δψm, as described previously.[71],[79] Owing to charges distributed along JC-1 molecules, they pass unimpaired (charged) mitochondrial membranes and enter the mitochondrial matrix. There the J-molecules form J-aggregates, which emit at 590 nm (orange–red fluorescence). […] The monomers emit at 527 nm (green fluorescence). A decrease in the red–green fluorescence intensity ratio is an indication for mitochondrial depolarization. As a positive control, the proton ionophore carbonyl cyanide m-chlorophenylhydrazone was used as described previously.[71] Cells were collected and prepared for suspension in 10 μg/ml of JC-1 solution in PBS. After incubation at 37 °C for 30 min in the dark, the cells were washed with 0.5 ml of PBS, and the cell suspensions were analyzed with the BD FACSCalibur flow cytometer."}, "U118MG cells [3]": {"system": "U118MG cells", "experiment": "Mitochondrial ROS / cardiolipin oxidation (NAO) assay in U118MG cells exposed to glutamate", "assay_type": "cell-based, human", "details": "25 μM compound, 35 mM glutamate", "from_the_text": "Cardiolipin is present in the inner mitochondrial membrane, at the contact sites with the outer mitochondrial membrane. By application of NAO, we assayed cardiolipin peroxidation as an indication of mitochondrial ROS generation, as described previously.[71] NAO binds with high affinity to non-oxidized cardiolipin in a 2 : 1 ratio, but with less affinity to oxidized cardiolipin, the latter which is reflected by lower levels of green NAO fluorescence.[78] For our study, cells were collected and centrifuged at 1200×g for 5 min, 4 °C. Cell pellets were re-suspended in 0.5 ml of 0.1 μM NAO and incubated for 30 min at 37 °C in the dark. Then, the cells were washed once with 0.5 ml PBS and transferred into 5 ml FALCON FACS tubes and analyzed with the aid of a BD FACSCalibur flow cytometer using CellQuest software (BD Biosciences, Franklin Lakes, NJ, USA)."}, "PC12 cells [4]": {"system": "PC12 cells", "experiment": "Cell death of PC12 cells, glutamate with or without MGV-1 (LDH)", "assay_type": "cell-based, rat", "procedure": "(2) For PC12 cells (as for U118MG cells), dose-response assays of the lethal effects of glutamate on PC12 cells established 35 mM as an optimal concentration for glutamate for induction of LDH activity in the medium in the range of 20–40% as compared with the effect of the positive control, 1% Triton X-100, the latter which is defined as causing 100% of LDH release in the medium."}, "PC12 cells [5]": {"system": "PC12 cells", "experiment": "Neuronal differentiation of PC12 cells, strain not specified", "assay_type": "cell-based, rat", "details": "agent by itself; MGV-1 50 μM", "procedure": "For our newly developed differentiation method by MGV-1 in combination with glutamate, PC12 cells were plated onto poly-L-lysine coated culture plates and Petri dishes at a relatively low density (5.2×10^3 cells/cm^2 for six-well plates and 3.6×10^3 cells/cm^2 for Petri dishes), in DMEM medium containing 8% heat-inactivated FBS and 8% horse serum. […] Exposure to vehicle alone (culture medium with 1% of ethanol) was used as the control.\nThe major and determining indication of neural differentiation of PC12 cells is neurite development.[23],[80] […] The number of differentiated cells was determined by visual examination of the captured fields. In particular, a line was drafted at half height of the image and the cell bodies crossed by the line were further analyzed regarding differentiation. […] Cells with at least one identifiable neurite with a length at least equal to the cell body diameter were scored, and their number expressed as a percentage of the total number of cells crossed by said line. In addition, for each of these cells, the length of the longest neurite was determined (using AxioVision Image software, Zeiss). […]"}, "[6]": {"system": "NeuN expression in PC12 cells strain #3", "experiment": "Western blot of NeuN in PC12 strain #3", "assay_type": "cell-based, rat", "details": "PC12 strain #3, versus vehicle control", "procedure": "The relative protein levels of TSPO and other proteins related to neurodifferentiation (including β-actin, NeuN, tubulin-3β), were assayed by immunoblotting with the aid electrophoresis through 12% SDS-polyacrylamide gel, according to previously described methods.[71] A priori, general protein levels were measured by the method of Bradford using BSA as a standard.[75] After electrophoresis, the gels were subjected to electrophoretic transfer to nitrocellulose membranes. Then, the membranes were blocked for 1 h in 5% non-fat milk in 62.5 mM sodium phosphate buffer, pH 7.4, containing 100 mM NaCl, and 0.1% (v/v) Tween-20 (PBS-T) and then incubated for 2 h or overnight at 4 °C with the appropriate antibodies: anti-tubulin-3β 1 : 10 000, anti-NeuN 1 : 1000, anti β-actin 1 : 15 000, and anti-TSPO 1 : 10 000.[73] After washing with TBS-T, the membranes were incubated with IgG secondary antibody linked to horseradish peroxidase (anti-rabbit IgG 1 : 20 000, anti-mouse IgG 1 : 10 000, as appropriate, from Jackson Immunologicals, West Grove, PA, USA) in TBS-T at room temperature. Binding of antibodies to the membrane was detected with the EZ-ECL-detection reagent (Biological Industries), using the ImageQuant LAS 4010 apparatus and Totallab Quant quantitative image analysis of Totallab (Newcastle upon Tyne, England)."}}, "note": "Where “and” joins values, the source holds several entries; their conditions need not be identical. Equal entries are not always repeated. Entries after “also recorded” stand apart in the source; their conditions may differ.", "data": [{"compound": "CN(C)C(=O)Oc1nc(-c2ccccc2)nc2ccccc12", "note": "[MGV-1, 2-phenylquinazolin-4-yl dimethylcarbamate]", "values": [{"measurement": "Protection against glutamate-induced cell death (LDH)", "setting": "U118MG cells [1]; compound 10-100 μM, 24 h pretreatment", "result": "protect against lethal effects of glutamate; also recorded: prevented cell death induction"}, {"measurement": "Most effective concentration for protection against cell death", "setting": "U118MG cells [1]; tested 0.1 nM-100 μM", "result": "25 µM and 50 µM"}, {"measurement": "Prevention of collapse of the ΔΨm induced by glutamate (JC-1)", "setting": "U118MG cells [2]", "result": "prevention of the collapse of the ΔΨm"}, {"measurement": "Prevention of cardiolipin oxidation / mitochondrial ROS generation induced by glutamate (NAO)", "setting": "U118MG cells [3]", "result": "prevent cardiolipin oxidation"}, {"measurement": "Cell death of PC12 cells by the compound by itself", "setting": "PC12 cells [4]; 100 μM, no glutamate", "result": "can induce cell death"}, {"measurement": "Enhancement of cell death induction by glutamate", "setting": "PC12 cells [4]; PC12, 50 μM MGV-1, 35 mM glutamate", "result": "threefold"}, {"measurement": "Optimal concentration as enhancer of cell death induced by glutamate", "setting": "PC12 cells [4]; PC12, 35 mM glutamate, tested 0.1 nM-100 μM", "result": 50, "unit": "µM"}, {"measurement": "Neuronal differentiation of PC12 cells (neurite outgrowth)", "setting": "PC12 cells [5]", "result": "very effective in inducing extensive neuronal differentiation; also recorded: more effective than NGF and glutamate by themselves"}, {"measurement": "Increase of NeuN expression (western blot)", "setting": "[6]", "result": "do not enhance NeuN expression significantly"}]}]}
